Values quoted from earlier work as cited in PubChem BioAssay AID1259409 (Chemical Carcinogenesis Research Information System (CCRIS), 2018).

Test system: rodent chemically induced tumor inhibition, incidence and multiplicity
Assay: CCRIS tumor inhibitor studies
Conditions: 937-40-6, Dose [Inhibitor]: 0, Route [Inhibitor]: ORAL, Species: RAT, Promoter: NONE USED

## O=c1oc2c(O)c(O)cc3c(=O)oc4c(O)c(O)cc1c4c23
Carcinogen: N-NITROSOBENZYLMETHYLAMINE, 1.2 UMOL/G IN DIET FOR DURATION OF STUDY BEGINNING 2 WK PRIOR TO CARCINOGEN TREATMENT (STUDY DURATION: 20 WK), Strain/Sex: F344/MALE, Target Tissue: Type of Lesion: ESOPHAGUS: TUMORS, Dose [Carcinogen]: 0.5 MG/KG IN 0.1 ML OF DMSO 1/WK FOR 18 WK
  tumour outcome (control, treated, inhibition, significance): 15/15 (100%), 14/15 (93%), 7%, not significant
Carcinogen: N-NITROSOBENZYLMETHYLAMINE, 1.2 UMOL/G IN DIET FOR DURATION OF STUDY BEGINNING 2 WK PRIOR TO CARCINOGEN TREATMENT (STUDY DURATION: 20 WK), Strain/Sex: F344/MALE, Target Tissue: Type of Lesion: ESOPHAGUS: TUMORS, Dose [Carcinogen]: 1.25 MG/KG IN 0.1 ML OF DMSO 1/WK FOR 18 WK
  tumour outcome (control, treated, inhibition, significance): 15/15 (100%), 15/15 (100%), 0%, not significant
Carcinogen: N-NITROSOBENZYLMETHYLAMINE, 1.2 UMOL/G IN DIET FOR DURATION OF STUDY BEGINNING 2 WK PRIOR TO CARCINOGEN TREATMENT (STUDY DURATION: 27 WK), Strain/Sex: F344/MALE, Target Tissue: Type of Lesion: ESOPHAGUS: TUMORS, Dose [Carcinogen]: 0.5 MG/KG IN 0.1 ML OF DMSO 1/WK FOR 18 WK
  tumour outcome (control, treated, inhibition, significance): 15/15 (100%), 15/15 (100%), 0%, not significant
Carcinogen: N-NITROSOBENZYLMETHYLAMINE, 1.2 UMOL/G IN DIET FOR DURATION OF STUDY BEGINNING 2 WK PRIOR TO CARCINOGEN TREATMENT (STUDY DURATION: 27 WK), Strain/Sex: F344/MALE, Target Tissue: Type of Lesion: ESOPHAGUS: TUMORS, Dose [Carcinogen]: 1.25 MG/KG IN 0.1 ML OF DMSO 1/WK FOR 18 WK
  tumour outcome (control, treated, inhibition, significance): 15/15 (100%), 15/15 (100%), 0%, not significant
Carcinogen: N-NITROSOBENZYLMETHYLAMINE, 4 G/KG IN DIET BEGINNING 2 WK PRIOR TO FIRST CARCINOGEN DOSE (STUDY DURATION: 20 WK), Strain/Sex: F-344/MALE, Target Tissue: Type of Lesion: ESOPHAGUS: TUMOR, Dose [Carcinogen]: 0.5, 1.25 MG/KG 1/WK FOR 18 WK
  tumour outcome (control, treated, inhibition, significance): 15/15 (100%), 12/15 (80%), 20%, not calculated (low dose carcinogen); 15/15 (100
Carcinogen: N-NITROSOBENZYLMETHYLAMINE, 4 G/KG IN DIET BEGINNING 2 WK PRIOR TO FIRST CARCINOGEN DOSE (STUDY DURATION: 27 WK), Strain/Sex: F-344/MALE, Target Tissue: Type of Lesion: ESOPHAGUS: TUMOR, Dose [Carcinogen]: 0.5, 1.25 MG/KG 1/WK FOR 18 WK
  tumour outcome (control, treated, inhibition, significance): 15/15 (100%), 15/15 (100%), 0%, not calculated (low dose carcinogen); 15/15 (100
Carcinogen: N-NITROSOBENZYLMETHYLAMINE, 12 UMOL/G IN DIET FOR DURATION OF STUDY BEGINNING 2 WK PRIOR TO CARCINOGEN TREATMENT (STUDY DURATION: 20 WK), Strain/Sex: F344/MALE, Target Tissue: Type of Lesion: ESOPHAGUS: TUMORS, Dose [Carcinogen]: 0.5 MG/KG IN 0.1 ML OF DMSO 1/WK FOR 18 WK
  tumour outcome (control, treated, inhibition, significance): 15/15 (100%), 12/15 (80%), 20%, not significant
Carcinogen: N-NITROSOBENZYLMETHYLAMINE, 12 UMOL/G IN DIET FOR DURATION OF STUDY BEGINNING 2 WK PRIOR TO CARCINOGEN TREATMENT (STUDY DURATION: 20 WK), Strain/Sex: F344/MALE, Target Tissue: Type of Lesion: ESOPHAGUS: TUMORS, Dose [Carcinogen]: 1.25 MG/KG IN 0.1 ML OF DMSO 1/WK FOR 18 WK
  tumour outcome (control, treated, inhibition, significance): 15/15 (100%), 15/15 (100%), 0%, not significant
Carcinogen: N-NITROSOBENZYLMETHYLAMINE, 12 UMOL/G IN DIET FOR DURATION OF STUDY BEGINNING 2 WK PRIOR TO CARCINOGEN TREATMENT (STUDY DURATION: 27 WK), Strain/Sex: F344/MALE, Target Tissue: Type of Lesion: ESOPHAGUS: TUMORS, Dose [Carcinogen]: 0.5 MG/KG IN 0.1 ML OF DMSO 1/WK FOR 18 WK
  tumour outcome (control, treated, inhibition, significance): 15/15 (100%), 15/15 (100%), 0%, not significant
Carcinogen: N-NITROSOBENZYLMETHYLAMINE, 12 UMOL/G IN DIET FOR DURATION OF STUDY BEGINNING 2 WK PRIOR TO CARCINOGEN TREATMENT (STUDY DURATION: 27 WK), Strain/Sex: F344/MALE, Target Tissue: Type of Lesion: ESOPHAGUS: TUMORS, Dose [Carcinogen]: 1.25 MG/KG IN 0.1 ML OF DMSO 1/WK FOR 18 WK
  tumour outcome (control, treated, inhibition, significance): 15/15 (100%), 15/15 (100%), 0%, not significant
Carcinogen: N-NITROSOMETHYLBENZYLAMINE, 400 PPM IN DIET FOR DURATION OF STUDY BEGINNING 1 WK POST CARCINOGEN TREATMENT (STUDY DURATION: 25 WK), Strain/Sex: F344/MALE, Target Tissue: Type of Lesion: ESOPHAGUS: TUMOR, Dose [Carcinogen]: 1 MG/KG 3/WK FOR 5 WK
  tumour outcome (control, treated, inhibition, significance): 15/15 (100%), 14/15 (93%), 7%, not significant
Carcinogen: N-NITROSOMETHYLBENZYLAMINE, 4000 PPM IN DIET FOR DURATION OF STUDY BEGINNING 1 WK POST CARCINOGEN TREATMENT (STUDY DURATION: 25 WK), Strain/Sex: F344/MALE, Target Tissue: Type of Lesion: ESOPHAGUS: TUMOR, Dose [Carcinogen]: 1 MG/KG 3/WK FOR 5 WK
  tumour outcome (control, treated, inhibition, significance): 15/15 (100%), 10/15 (67%), 33%, p<0.05
